In patent publication US20240226107A1, “UBIQUITIN-SPECIFIC PROTEASE 1 (USP1) INHIBITOR” (SIMCERE ZAIMING PHARMACEUTICAL CO., LTD., priority 2021, published 2024):

Experiments:
[1] = molecular target: USP1 (Recombinant Human His6-USP1/His6-UAF1 Complex Protein) (Homo sapiens (Human), UniProt O94782); test: In vitro activity assay for USP1 (Ub-CHOP2-Reporter deubiquitination assay); type: biochemical; conditions: 0.5 h incubation at room temperature, read-out: In vitro inhibitory activity of USP1 IC50
Sequence of USP1 (Recombinant Human His6-USP1/His6-UAF1 Complex Protein) (O94782 whole entry): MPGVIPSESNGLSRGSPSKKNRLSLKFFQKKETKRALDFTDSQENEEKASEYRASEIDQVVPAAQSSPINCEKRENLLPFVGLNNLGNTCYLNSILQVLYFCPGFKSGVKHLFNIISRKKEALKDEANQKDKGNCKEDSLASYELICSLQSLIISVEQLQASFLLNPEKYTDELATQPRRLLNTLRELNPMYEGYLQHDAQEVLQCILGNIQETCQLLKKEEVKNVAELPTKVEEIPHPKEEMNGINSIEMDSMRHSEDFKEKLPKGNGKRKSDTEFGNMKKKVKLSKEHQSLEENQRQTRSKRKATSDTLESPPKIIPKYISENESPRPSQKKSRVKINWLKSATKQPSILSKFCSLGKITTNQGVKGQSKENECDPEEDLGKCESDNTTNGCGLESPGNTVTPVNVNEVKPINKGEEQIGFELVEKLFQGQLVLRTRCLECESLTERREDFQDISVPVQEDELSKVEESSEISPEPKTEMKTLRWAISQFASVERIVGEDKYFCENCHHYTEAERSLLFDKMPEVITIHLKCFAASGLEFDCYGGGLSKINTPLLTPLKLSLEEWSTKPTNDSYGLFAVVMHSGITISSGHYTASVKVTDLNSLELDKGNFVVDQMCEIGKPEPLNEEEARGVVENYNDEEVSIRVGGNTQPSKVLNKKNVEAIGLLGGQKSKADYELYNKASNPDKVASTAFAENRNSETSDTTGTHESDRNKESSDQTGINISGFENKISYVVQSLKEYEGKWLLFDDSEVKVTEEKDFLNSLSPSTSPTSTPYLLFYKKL
Sequence of USP1 (Recombinant Human His6-USP1/His6-UAF1 Complex Protein) (Q8TAF3 whole entry partner): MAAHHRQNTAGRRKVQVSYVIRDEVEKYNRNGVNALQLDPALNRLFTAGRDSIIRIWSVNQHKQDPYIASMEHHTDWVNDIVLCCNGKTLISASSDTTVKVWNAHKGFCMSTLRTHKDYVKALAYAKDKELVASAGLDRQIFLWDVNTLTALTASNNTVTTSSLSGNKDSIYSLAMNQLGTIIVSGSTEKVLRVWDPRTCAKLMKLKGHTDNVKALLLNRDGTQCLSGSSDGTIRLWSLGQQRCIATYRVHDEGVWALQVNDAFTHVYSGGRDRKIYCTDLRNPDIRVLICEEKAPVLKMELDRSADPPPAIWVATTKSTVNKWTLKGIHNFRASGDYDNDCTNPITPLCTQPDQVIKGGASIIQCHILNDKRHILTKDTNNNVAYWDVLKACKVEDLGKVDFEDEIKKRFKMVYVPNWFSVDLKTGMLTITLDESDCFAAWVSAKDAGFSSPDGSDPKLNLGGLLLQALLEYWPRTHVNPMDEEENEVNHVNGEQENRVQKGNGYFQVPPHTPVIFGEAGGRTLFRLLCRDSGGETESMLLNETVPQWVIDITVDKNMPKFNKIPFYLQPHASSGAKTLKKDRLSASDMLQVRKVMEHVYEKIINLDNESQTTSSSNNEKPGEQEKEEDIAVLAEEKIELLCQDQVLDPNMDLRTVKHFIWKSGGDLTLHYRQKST
Outline: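 His6-USP1/His6-UAF1 complex was mixed with compound in 20 mM Tris-HCl pH 8.0, 2 mM CaCl2, 2 mM β-mercaptoethanol and 0.05% CHAPS. Ub-CHOP2 reporter system plus substrate was added, then incubated 0.5 h at room temperature. IC50 came from a four-parameter logistic fit.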

[2] = Metabolic stability in vitro in rat hepatocytes; type: in vitro ADME; conditions: read-out: Intrinsic clearance
Description: The concentration of each compound in the reaction system was measured by LC/MS/MS to calculate the intrinsic clearance of the compounds to be tested, and evaluate the metabolic stability in vitro in rat hepatocytes.
To the incubation plate, 198 μL of 0.5×10^6 cells/mL rat hepatocyte mixture and 2.0 μL of 100 μM compound to be tested or positive control were added to initiate reaction. Incubation was performed at 900 rpm at 37° C. […] Then the mixture was vortex-mixed for 5 min. […] Then 100 μL of supernatant of each compound was transferred to a 96-well sample plate, and 100 μL of purified water was added to dilute the sample. The resulting samples were quantified by ion chromatograms. The residual rate was calculated from peak areas of the compounds to be tested or the positive control. The slope k was determined using Microsoft Excel by linear regression of natural logarithm of the residual rate to the incubation time. The intrinsic clearance (in vitro CLint, μL/min/10^6 cells) was calculated from the slope value according to the following equation: […]
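For GI50 in this document: MDA-MB-436 proliferation over 7 days with compound, viability read as ATP luminescence (CellTiter-Glo), inhibition relative to DMSO-only wells, day 0 signal as background, GI50 from four-parameter fit.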

Description for MDA-MB-436 cells: Assay based on CellTiter-Glo luminescent cell viability assay system.
The assay kit (CellTiter-Glo® Luminescent Cell Viability Assay) was purchased from Promega, with Cat. No. of G7573, and was stored at −30° C. after subpackage. The kit is a homogeneous assay method for assaying the number of viable cells in a culture based on quantitative determination of ATP. The kit produces a luminescence signal proportional to the amount of ATP present, and the amount of ATP is directly proportional to the number of cells in the culture.
The cultured cells were trypsinized, collected and centrifuged, then resuspended at an adjusted concentration in a culture solution (DMEM+10% FBS), and cultured overnight on a 384-well plate (400 cells/20 μl/well) in a cell incubator with 5% CO2 at 37° C. An ECHO instrument was used to added the compound and pure DMSO onto each well of the 384-well plate. The total volume of the compound and DMSO is 100 nL, and the instrument obtains gradient diluted sample concentrations through different ratios. To each well, 30 μL of culture solution was added, and after mixing by centrifugal oscillation and re-centrifugation, the cells were cultured in a cell incubator for 7 days (one column of cells was subjected to CTG assay on the day of dosing). After day 7, 25 μL of CTG assay solution was added to each well, and after mixing by centrifugal oscillation and re-centrifugation, the cells were placed at room temperature away from light for 10 min. In terms of chemiluminescence signals, an Envision plate reader (PerkinElmer, emission wavelength: 400-700 nm) was used to measure a signal in each well. The chemiluminescence value [RLU]cpd on day 7 was obtained for the treatment group, the chemiluminescence value [RLU]cell on day 7 was obtained for the non-treatment group (given DMSO only), and the chemiluminescence value [RLU]background on day 0 was obtained for the parallel non-treatment group (given DMSO only) by CTG assay on day 0. […] In the following equation, x represents the concentration of the compound in a logarithmic form; and F(x) represents an effect value (inhibition rate of proliferation at the concentration): F(x)=(A+((B−A)/(1+((C/x)^D)))). A, B, C, and D are four parameters.

- GI50 (MDA-MB-436 cells): 32.8 nM
- IC50 [1]: 45.4 nM
- hepatocyte CLint at 1 μM [2]: < 1 µL/min/1e6 cells
Structure (SMILES): COc1ncnc(C2CC2)c1-c1ncc2c(n1)N(Cc1ccc(-c3nc(C(F)(F)F)cn3C)cc1)CC(=O)N2C [Compound 11, 2-(4-cyclopropyl-6-methoxypyrimidin-5-yl)-5-methyl-8-(4-(1-methyl-4-(trifluoromethyl)-1H-imidazol-2-yl)benzyl)-7,8-dihydropteridin-6(5H)-one]
